Results on six molecules are retold here after patent US11266663B2, “Treatment of neuropsychiatric disorders with neurosteroids and analogues thereof” (THE BOARD OF TRUSTEES OF THE UNIVERSITY OF ILLINOIS, priority 2017, dated 2022).

Experiment [1] concerns early and late adolescent SI mice. Kind of experiment: Locomotor activity test. In kind it is in vivo, Swiss-Webster mice. The settings on record: all doses tested, i.p., 60 min before test, 10 min recording.
Experimental: BR351 (1-5 mg/kg) and BR297 (0.3125-2.5 mg/kg) were obtained from NeuroRhine Consortium (Strasbourgh, France). All the drugs were dissolved in saline solution containing 0.5% Tween-80 (Sigma Aldrich, St. Louis, Mo., United States), and were injected intraperitoneally (i.p.), 60 min before behavioral tests.
A computerized AccuScan 12 Animal Activity Monitoring System (Columbus Instruments, Columbus, Ohio, United States) assisted by VERSAMAX software (AccuScan Instruments, Columbus, Ohio, United States) was used to quantify locomotor activity (Pinna et al., 1997, 2006a). Each activity cage was made of a 20 cm×20 cm×20 cm Perspex box surrounded by horizontal and vertical infrared sensor beams. Horizontal sensors' beam interruptions were taken as a measure of horizontal activity.
The test system is the same in experiment [2]. Kind of experiment: Resident-intruder test, aggressive behavior of socially isolated (SI) mice. The experiment is classed as in vivo, Swiss-Webster mice. The conditions noted are these: for reduction in the number of attacks vs. basal value / EC50 dose, decrease of aggression: 60 min before test; for “Non-responders” Early SI mice (%) / “Non-responders” Late SI mice (%): decrease of aggression <=30% vs basal; for EC50 dose, decrease of aggression: i.p. The text has this: Male Swiss-Webster mice (Harlan Breeders) (18-30 g body weight), maintained under a 12-h dark/light cycle with food and water ad libitum were used for all experiments. Mice were housed individually in a cage of dimensions 24 cm×17 cm×12 cm. For these experiments, two mice experimental groups were used for the study of drug effect in different age conditions. The first group was isolated at 21 days (“early adolescent SI mice,” PND 21), while the second group at 45 days (“late adolescent SI mice,” PND 45). The animals were exposed to behavioral testing after 6 weeks of isolation. The vivarium temperature was kept at 24° C. and the humidity near 65%.
[…] All the drugs were dissolved in saline solution containing 0.5% Tween-80 (Sigma Aldrich, St. Louis, Mo., United States), and were injected intraperitoneally (i.p.), 60 min before behavioral tests.
To test aggression, a male intruder mouse of the same strain as the resident mouse, was placed in a resident home cage (24 cm×17 cm×12 cm) and resident-intruder interactions were videotaped for 10 min. Aggressive behavior of SI mice was characterized by an initial pattern of exploratory activity around the intruder, followed by rearing and tail rattle, accompanied within a few seconds by wrestling and/or a violent biting attacks. The total number of wrestling and attacks during the 10 min observation period was measured as previously described (Pinna et al., 2003, 2005), 60 min after drug administration. For every drug studied, SI mice were first exposed to three behavioral sessions, and then the average of basal aggression level for every single SI mouse was calculated; 2 days later, aggression levels following treatment were tested. Treated animals showing a reduction of the number of attacks less than 30% vs. the respective basal control values were considered as “low- to non-responders.”
Results are presented as means±SEMs unless otherwise indicated. Student's t-test, one-way ANOVA and two-way ANOVA repeated measures followed by Bonferroni post hoc test were performed to analyze experimental data; significance was set at p<0.05. EC50 values were calculated from dose-response curves analyzed by the “quantal dose-response: probits test” using the computer program of Tallarida and Murray equipped with a statistical package (Tallarida and Murray, 1987). Statistical comparisons among the different ECsos were performed with the “cohort package software.” (available at cohort.com).

Experiment [3] has the same test system. The settings on record: i.p., previously established in Pinna and Rasmusson, 2014; cited from earlier work.
Experiment [4] deals with post-partum depression patients. The settings on record: two-day course of intravenous infusion; cited from earlier work.
Where [5] appears, read: early SI mice, single dose 2.5 mg/kg.
The mark [6] stands for this setting: early adolescent SI mice (PND 21).
The mark [7] stands for this setting: late SI mice, single dose 2.5 mg/kg (given in mg).
The mark [8] stands for this setting: late adolescent SI mice (PND 45).
[9] abbreviates: early SI mice, single dose, dose not stated (FIG. 5 legend).
[10] abbreviates: late SI mice, single dose, dose not stated (FIG. 5 legend).

Structures are written as SMILES. Where “and” joins values, the source holds several entries; their conditions need not be identical. Equal entries are not always repeated. Entries after “also recorded” stand apart in the source; their conditions may differ.

With `CCCCCCCCCCCCCCCC(=O)NCCO` [PEA, N-palmitoylethanolamine], the “effect on locomotor (exploratory) activity” value (“effect on locomotor” for short) in experiment [1] is “not altered”.
Turning to `C=CCO[C@@H]1CC[C@]2(C)C3CC[C@@]4(C)C(CC[C@@H]4C(C)=O)C3CC[C@H]2C1` (stereo partly shown) [BR351], in experiment [2] (5 mg/kg i.p., trend, p=0.0801), the “difference of anti-aggressive effect, late compared with early SI mice” value (from here on “difference of anti-aggressive effect”) is reported as “+179%”. The “reduction in the number of attacks vs. basal value” (“reduction in the number” for short) in experiment [2] (early SI mice (PND 21), 5 mg/kg i.p.) was −56%; in experiment [2] (late SI mice (PND 45), 5 mg/kg i.p.), −80%. The ““Non-responders” Early SI mice (%)” value in experiment [2] (early SI mice, single dose 1 mg/kg (given in mg)) is 50.0%; in experiment [2] (early SI mice, single dose 2.5 mg/kg (given in mg)), 20.0%; in experiment [2] (early SI mice, single dose 5 mg/kg (given in mg), 5 mg/kg), 13.33% and 13.3%. Besides, the “duration of anti-aggressive effect (time until aggression rebounded to basal values)” value was “rapidly extinguished” in experiment [2] (early SI mice, single dose 1 mg/kg); 5 days in experiment [2] (setting [5]); 3 days in experiment [2] (early SI mice, single dose 5 mg/kg); 1 days in experiment [2] (late SI mice, single dose 1 mg/kg); 5 days in experiment [2] (late SI mice, single dose 2.5 mg/kg); 5 days in experiment [2] (late SI mice, single dose 5 mg/kg). Besides, the “EC50 dose, decrease of aggression” value in experiment [2] (setting [6]) is given as 4.5 mg/kg; in experiment [2] (setting [8]) it was 3.75 mg/kg. Further, the ““Non-responders” Late SI mice (%)” value in experiment [2] (late SI mice, single dose 1 mg/kg (given in mg)) is 54.6%; in experiment [2] (setting [7]) it was 40.0%; in experiment [2] (late SI mice, single dose 5 mg/kg (given in mg), 5 mg/kg), 8.33% and 8.3%. The “effect on locomotor” value in experiment [1] was “failed to alter locomotion patterns”.
In the case of `CC(=O)[C@H]1CC[C@H]2[C@@H]3CC[C@H]4C[C@](C)(O)CC[C@]4(C)[C@H]3CC[C@]12C` [GNX, ganaxolone, reference compound], the “difference of anti-aggressive effect” value in experiment [2] (10 mg/kg i.p.) is “+197%”. For the same molecule, the “reduction in the number” value in experiment [2] (early SI mice (PND 21), 10 mg/kg i.p.) was −72%; in experiment [2] (late SI mice (PND 45), 10 mg/kg i.p.), −46%. In addition, the ““Non-responders” Early SI mice (%)” value in experiment [2] (early SI mice, single dose 10 mg/kg (given in mg), 10 mg/kg) came out at 25%. Besides, the ““Non-responders” Late SI mice (%)” value in experiment [2] (late SI mice, single dose 10 mg/kg (given in mg), 10 mg/kg) was 15.38% and 15.4%. Further, in experiment [2] (late SI mice, single dose 10 mg/kg (EC50 dose)), the “duration of anti-aggressive effect (time until aggression rebounded to basal values)” value is listed as 5 days. In addition, the “effect on locomotor” value in experiment [1] is reported as “failed to alter locomotion patterns”. In addition, in experiment [3], the EC50 dose is listed as 10 mg/kg.
Turning to `CC(=O)C1CC[C@H]2[C@@H]3CCC4C[C@H](O)CC[C@]4(C)[C@H]3CC[C@]12C` (stereo partly shown) [Allo, allopregnanolone], in experiment [4], the “duration of symptom improvement” value was 30 days; the “remission of post-partum depression, patients” value was 70%; the “time to symptom improvement” value is given as 60 h.
`C=CCO[C@H]1CC[C@]2(C)C3CC[C@@]4(C)C(CC[C@@H]4C(C)=O)C3CC[C@H]2C1` (stereo partly shown) [BR297]: the “difference of anti-aggressive effect” value in experiment [2] (2.5 mg/kg i.p., trend, p=0.108) is reported as “+235%”. For the same molecule, the “reduction in the number” value is listed as −59% in experiment [2] (early SI mice (PND 21), 0.3125 mg/kg i.p.); −61% in experiment [2] (early SI mice (PND 21), 0.625 mg/kg i.p.); −70% in experiment [2] (early SI mice (PND 21), 2.5 mg/kg i.p.); −60% in experiment [2] (late SI mice (PND 45), 0.3125 mg/kg i.p.); −63% in experiment [2] (late SI mice (PND 45), 0.625 mg/kg i.p.); −91% in experiment [2] (late SI mice (PND 45), 2.5 mg/kg i.p.). For the same molecule, the ““Non-responders” Early SI mice (%)” value in experiment [2] (early SI mice, single dose 0.3125 mg/kg (given in mg)) is 30.0%; in experiment [2] (early SI mice, single dose 0.625 mg/kg (given in mg)) it was 21.4%; in experiment [2] (early SI mice, single dose 2.5 mg/kg (given in mg), 2.5 mg/kg) it was 6.25% and 6.3%. Also, the “duration of anti-aggressive effect (time until aggression rebounded to basal values)” value in experiment [2] (early SI mice, single dose 0.3125 mg/kg) amounted to 3 days; in experiment [2] (early SI mice, single dose 0.625 mg/kg), 7 days; in experiment [2] (setting [5]), 7 days; in experiment [2] (setting [9]), 7 days; in experiment [2] (late SI mice, single dose 0.3125 mg/kg) it was 3 days; in experiment [2] (late SI mice, single dose 0.625 mg/kg), 9 days. Further, the “duration of anti-aggressive effect (time until aggression rebounded to basal values)” value in experiment [2] (setting [10]) came out at 9 days. Moreover, the “EC50 dose, decrease of aggression” value in experiment [2] (setting [6]) and in experiment [2] (setting [8]) was 0.25 mg/kg in each case. Moreover, the ““Non-responders” Late SI mice (%)” value in experiment [2] (late SI mice, single dose 0.3125 mg/kg (given in mg)) amounted to 18.2%; in experiment [2] (late SI mice, single dose 0.625 mg/kg (given in mg)), 18.2%; in experiment [2] (setting [7]), 0%. For the same molecule, in experiment [1], the “effect on locomotor” value is on record as “failed to alter locomotion patterns”.
For the molecule `CNCC[C@H](Oc1ccc(C(F)(F)F)cc1)c1ccccc1` [S-FLX, S-fluoxetine, reference compound], the “duration of anti-aggressive effect (time until aggression rebounded to basal values)” value amounted to 1 days in experiment [2] (early SI mice, single dose 0.375 mg/kg); 3 days in experiment [2] (early SI mice, single dose 0.75 mg/kg); 3 days in experiment [2] (setting [9]); 1 days in experiment [2] (late SI mice, single dose 0.375 mg/kg); 3 days in experiment [2] (late SI mice, single dose 0.75 mg/kg); 3 days in experiment [2] (setting [10]). For the same molecule, the “reduction in the number” value in experiment [2] (late SI mice (PND 45), 0.75 mg/kg i.p.) is recorded as −52%. Also, the “effect on locomotor” value in experiment [1] was “did not reduce exploratory activity; also recorded: failed to alter locomotion patterns”.
